Experiments:
[1] = molecular target: T1, memapsin 2 (Homo sapiens, UniProt P56817); experiment: Inhibition of memapsin 2 cleavage of fluorogenic substrate FS-2 (Ki, Ki apparent, Vi/Vo, % inhibition); type: biochemical; settings: Table 9; ratio of % inhibition memapsin 1 / memapsin 2; 1 or less = greater inhibition of memapsin 2
T1 construct: made in house; host or cells: E. coli
Method: Ki is the inhibition equilibrium constant which indicates the ability of compounds to inhibit the β-secretase activity of memapsin 2 and memapsin 1. […] The K1 value is independent of the substrate, and converted from Ki apparent.
The Vi/Vo values depicted in Table 1 were determined at conditions under which the enzyme and inhibitor concentrations were equal (e.g., about 80 nM, 100 nM).
The relationship of Ki (independent of substrate concentration) to Kiapp is a function of substrate concentration in the assay and the Km for cleavage of the substrate by either memapsin 1 or memapsin 2 by the relationship: Kiapp=Ki(1+[S]/Km).
Ki is the inhibition equilibrium constant which indicates the ability of compounds to inhibit the β-secretase activity of memapsin 2 and memapsin 1. […] The Ki value is independent of the substrate, and converted from Ki apparent.
An aliquot of the inhibitor of known concentration in DMSO was diluted into 1.8 ml 0.1 M NaOAc, pH 4.0. DMSO and added to a final concentration of 10% (v/v), and memapsin 2 (final concentration of 80 nM), followed by a 20 minute equilibration at 37° C. Compounds were evaluated for the ability to inhibit memapsin 1 and memapsin 2 at concentrations between about 10 nM and about 10 μm of inhibitor.
The relationship of Ki (independent of substrate concentration) to Kiapp is a function of substrate concentration in the assay and the Km for cleavage of the substrate by either memapsin 1 or memapsin 2 by the relationship: Kiapp=Ki (1+[S]/Km).

[2] = system: plasma Aβ40; experiment: Inhibition of Aβ production in APP/F transgenic mouse model of Alzheimer's disease (plasma Aβ40 sandwich ELISA); type: in vivo, mice
Method: Compounds MMI-138, MMI-165, and MMI-185 were synthesized as described above. Compounds were dissolved in 1 ml of dimethyl sulfoxide (DMSO) to a final concentration of about 1 mg/ml for MMI-165 and MMI-185, and about 10 mg/ml for MMI-138. […] Inhibitors were diluted into PBS or H2O immediately prior to injection, as described below. Inhibition constants were determined by methods described by Ermolieff, et al (Biochem. 39:12450-12456 (2000), the teachings of which are incorporated hereby in their entirety).
The tg2576 strain of mice was obtained from Taconic (Germantown, N.Y.). The APP/F strain of mice were obtained by mating the tg2576 mice with the FVB/N strain. To determine presence of the Swedish APP gene in APP/F mice, the DNA from mice was isolated according to the Qiagen Dneasy™ Tissue Kit. PCR (Qiagen kit and protocol) was used to amplify the fragment of DNA corresponding to the human Swedish APP gene. The following primers were used: […]
At the age of three months, animals of the Alzheimer's disease mouse model APP/F were injected intraperitoneally (i.p.) with about 163 nanomoles of either compounds MMI-138 (molecular weight 674 g/mole; 110 μg per animal, n=2), MMI-165 (molecular weight 626 g/mole; 102 μg per animal, n—2), or MMI-185 (molecular weight 686; 112 μg per animal, n—2).
Heparinized capillary tubes collected blood samples from anesthetized animals from either the retro-orbital sinus or from the saphenous vein at specified intervals following injection. The blood samples were transferred to sterile 1.5 mL microcentrifuge tubes, centrifuged at 5,100 RPM for 10 minutes to recover the plasma (supernatant), and stored at −70° C. until analysis for the Aβ40 by Enzyme Linked-Immuno-Sorbent Assay (ELISA).
A sandwich ELISA (BioSource International, Camarillo, Calif.) was used to determine the levels of Aβ40 in plasma samples. The ELISA utilizes a primary antibody specific for human Aβ for the immobilization of the amino-terminus and a detection antibody specific for the carboxy-terminal amino acids of Aβ40. A conjugated secondary antibody was used to detect the ternary complex, using a stabilized chromogen substrate, quantifiable following addition of 1 M HCl, with the optical densities measured at 450 nm. The procedures were followed according to the BioSource protocol. Optical densities were converted to pg/ml quantities of Aβ40 using a linear regression of the optical densities of standards obtained from the commercial kit, to their known concentrations.

T1 sequence (P56817 41-454): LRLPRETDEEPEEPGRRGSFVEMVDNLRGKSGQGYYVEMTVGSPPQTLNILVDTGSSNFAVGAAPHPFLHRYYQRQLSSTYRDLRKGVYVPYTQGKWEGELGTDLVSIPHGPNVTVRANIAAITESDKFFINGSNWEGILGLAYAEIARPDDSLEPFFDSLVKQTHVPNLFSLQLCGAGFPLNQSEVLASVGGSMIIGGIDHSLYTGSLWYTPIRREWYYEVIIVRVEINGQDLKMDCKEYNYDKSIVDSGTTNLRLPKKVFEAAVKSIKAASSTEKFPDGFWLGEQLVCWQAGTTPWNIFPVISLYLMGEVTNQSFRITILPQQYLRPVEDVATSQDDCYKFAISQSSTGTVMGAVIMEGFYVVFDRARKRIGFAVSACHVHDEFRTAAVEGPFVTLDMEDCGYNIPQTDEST

Row | Compound | % Inh (M1/M2) [1] | also measured
1 | CSCC[C@H](NC(=O)OCn1nc(C)cc1C)C(=O)N[C@@H](CC(C)C)[C@@H](O)C[C@@H](C)C(=O)N[C@@H](CC(C)C)C(=O)NC(CF)CF [MMI-171] | 0.18 | 
2 | CSCC[C@H](NC(=O)OCCn1nc(C)cc1C)C(=O)N[C@@H](CC(C)C)[C@@H](O)C[C@@H](C)C(=O)N[C@@H](CC(C)C)C(=O)NCC(C)C [MMI-176] | 0 | 
3 | CSCC[C@H](NC(=O)OCCn1nc(C(C)C)cc1C(C)C)C(=O)N[C@@H](CC(C)C)[C@@H](O)C[C@@H](C)C(=O)N[C@H](C(=O)NCC(C)C)C(C)C [MMI-180] | 0 | 
4 | CSCC[C@H](NC(=O)OCn1nc(C)cc1C)C(=O)N[C@@H](CC(C)C)[C@@H](O)C[C@]1(C)CCN([C@@H](CC(C)C)C(=O)NCC(C)C)C1=O [MMI-181] | 0.19 | 
5 | CCCCNC(=O)[C@H](C(C)C)N1CC[C@@](C)(C[C@H](O)[C@H](CC(C)C)NC(=O)[C@H](CCSC)NC(=O)OCn2nc(C)cc2C)C1=O [MMI-182] | 0 | 
6 | COCC[C@H](NC(=O)[C@H](CC(C)C)NC(=O)OC(C)(C)C)C(=O)N[C@@H](CC(C)C)[C@@H](O)C[C@@H](C)C(=O)N[C@@H](CC(C)C)C(=O)NC(C)C [MMI-185] |  | Reduction of plasma Aβ40 ([2]; APP/F mice, about 163 nanomoles i.p., within 30 minutes following injection): 63%; Course of inhibition of plasma Aβ40 over a 24-h period ([2]; APP/F mice, single i.p. injection): appeared to return to initial level; Blood brain barrier penetration in transgenic mice ([2]; concluded from reduction of plasma Aβ): penetrated the blood brain barrier

Reference: patent US20060234944A1, “Beta-secretase inhibitors and methods of use” (Oklahoma Medical Reseach Foundation, priority 2001, published 2006)
